Biological target: Thymidylate synthase (Escherichia coli (strain K12), UniProt P0A884)
Test: Thymidylate Synthase (TS) Assay
Procedure: TS was assayed spectrophotometrically in the reaction buffer solution containing (6R, 6S)-5, 10-CH2H4folate. The reaction was initiated by the addition of an amount of enzyme yielding a change in absorbance at 340 nm of 0.016/min in the absence of inhibitor. Ki values were obtained from the linear least-squares fit of the residual activity as a function of inhibitor concentration, using suitable equations for competitive inhibition.

Thymidylate synthase, sequence (P0A884 whole entry): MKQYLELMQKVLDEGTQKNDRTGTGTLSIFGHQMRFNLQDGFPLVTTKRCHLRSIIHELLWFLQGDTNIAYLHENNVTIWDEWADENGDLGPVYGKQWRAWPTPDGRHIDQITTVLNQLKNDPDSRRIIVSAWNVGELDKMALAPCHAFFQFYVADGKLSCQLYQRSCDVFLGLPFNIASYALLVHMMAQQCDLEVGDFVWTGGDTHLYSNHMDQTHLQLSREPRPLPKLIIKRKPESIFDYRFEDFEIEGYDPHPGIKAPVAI

O=C1OC(c2cc(Br)c(O)c(Br)c2)(c2cc(Br)c(O)c(Br)c2)c2cccc3cccc1c23 [4,4-bis(3,5-dibromo-4-hydroxyphenyl)-3-oxatricyclo[7.3.1.0^{5,13}]trideca-1(12),5,7,9(13),10-pentaen-2-one]
Ki: > 11 mM
